In patent US20260124183A1, “METHODS OF TREATING SPINOCEREBELLAR ATAXIAS” (Biohaven Therapeutics Ltd., priority 2022, published 2026):
Structures can show the parent of a compound that is named as a salt.

What was measured:
[1] = tested on: spinocerebellar ataxia (SCA); experiment: Phase 3 clinical study of troriluzole in spinocerebellar ataxia: f-SARA total score change; assay type: in vivo, human; details: for LS mean change difference in f-SARA score from baseline vs placebo: Week 48, 200 mg daily
Method: Phase 3 Clinical Study for Troriluzole in Adult Subjects with Spinocerebellar Ataxia
(§1) The purpose of this study is to compare the efficacy of Troriluzole (200 mg once daily) versus placebo after 48 weeks of treatment in subjects with spinocerebellar ataxia (SCA).
(§2) • Study Type: Interventional (Clinical Trial) • Actual Enrollment: 218 participants • Allocation: Randomized • Intervention Model: Parallel Assignment • Masking: Triple (Participant, Care Provider, Investigator) • Primary Purpose: Treatment • Official Title: A Phase III, Long-Term, Randomized, Double-blind, Placebo-controlled Trial of Troriluzole in Adult Subjects With Spinocerebellar Ataxia.
(§3) • Arm • Experimental: Arm 1: BHV-4157 • Troriluzole 200 mg by mouth • Placebo Comparator: Arm 2: Placebo • Placebo 200 mg by mouth • Intervention/Treatment • Drug: troriluzole • 200 mg by mouth • Drug: placebo • 200 mg by mouth
• 1. Change from Baseline in the total score of the Modified Functional Scale for the Assessment and Rating of Ataxia (f-SARA) after 48 weeks of treatment. [Time Frame: Baseline to week 48] • An increase in the total score indicates a worsening of symptoms.
• 1. Subjects with a known or suspected diagnosis of the following specific hereditary ataxias: SCA1, SCA2, SCA3, SCA6, SCA7, SCA8 and SCA10; currently only enrolling SCA 1, SCA2, SCA3, SCA7, and SCA10 (the cap has been met for SCA6 and SCA8 (on May 31, 2019)); • a. A subject should have a confirmed genotypic diagnosis from a CLIA certified lab (can produce test results); or • b. A subject has a family member that has a confirmed genotypic diagnosis from a CLIA certified lab (can produce test results) and must be willing to undergo genetic testing to confirm underlying SCA diagnosis; or • c. A subject has a confirmed genotypic diagnosis from a lab that is not CLIA certified and must be willing to undergo genetic testing to confirm underlying SCA diagnosis; or • d. […] Ability to ambulate 8 meters without human assistance (canes and other devices allowed). • 3. Screening f-SARA total score ≥3. • 4. Score of ≥1 on gait subsection of the f-SARA. • 5. Determined by the investigator to be medically stable at Baseline/randomization as assessed by medical history, physical examination, laboratory test results, and electrocardiogram testing.
• 1. A ≥2-point difference on the Modified Functional SARA score between screening and baseline. • 2. MMSE score <24. • 3. […] A prominent spasticity or dystonia that, in the opinion of the investigator, will compromise the ability of the SARA instrument to assess underlying ataxia severity. • 5. A score of 4 on any individual item (Items 1-4) of the f-SARA. • 6. Subjects should be excluded at screening or baseline if medical conditions have arisen or there is a change in disease status that could confound the ability of the SARA to accurately reflect changes in ataxia severity. • 7. Active liver disease or a history of hepatic intolerance to medications that in the investigator's judgment, is medically significant.

[2] = tested on: spinocerebellar ataxia (SCA); experiment: Phase 3 clinical study: adverse events of fall, safety and tolerability; assay type: in vivo, human
Method: as §1, §2, §3
• 1. Change from baseline in Patient Impression of Function and Activities of Daily Living Scale (PIFAS) score at Randomization Phase Week 48. [Time Frame: Baseline to week 48] • An increase in the total score indicates a worsening of symptoms. • 2. Change from baseline in Activities of Daily Living Scale from the Friedreich's Ataxia Rating Scale (FARS-ADL) at Randomization Week 48. [Time Frame: Baseline to week 48] • An increase in the total score indicates a worsening of symptoms. • 3. Change from baseline in Functional Staging for Ataxia from the Friedreich's Ataxia Rating Scale (FARS-FUNC) at Randomization Phase Week 48. [Time Frame: Baseline to week 48] • An increase in the total score indicates a worsening of symptoms. • 4. Frequency of subjects with the following adverse events (AEs) identified from case report forms: AEs (by severity; by relationship to study drug; overall); SAEs; and AEs leading to treatment discontinuation. [Time Frame: Baseline to week 48]

[3] = Solubility of drug substance in water; assay type: physicochemical

Structure (SMILES): CN(CC(=O)Nc1nc2ccc(OC(F)(F)F)cc2s1)C(=O)CNC(=O)CN [troriluzole, 2-amino-N-({methyl-[(6-trifluoromethoxy-benzothiazol-2-ylcarbamoyl)-methyl]-carbamoyl}-methyl)-acetamide monohydrate monohydrochloride]
- LS mean change difference compared to placebo ([1]; SCA3 patient able to walk without assistance at baseline, week 4, 200 mg daily): at least −0.67
- LS mean change difference compared to placebo ([1]; SCA3 patient, week 4, 200 mg daily): at least −0.46
- LS mean change difference compared to placebo ([1]; SCA3 patient, week 8, 200 mg daily (first statement)): at least −0.12
- LS mean change difference compared to placebo ([1]; SCA3 patient, week 8, 200 mg daily (subgroup not given)): at least −0.33
- LS mean change difference compared to placebo ([1]; SCA3 patient, week 12, 200 mg daily (first statement)): at least −0.46
- LS mean change difference compared to placebo ([1]; SCA3 patient, week 12, 200 mg daily (subgroup not given)): at least −0.71
- LS mean change difference compared to placebo ([1]; SCA3 patient, week 24, 200 mg daily (first statement)): at least −0.17
- LS mean change difference compared to placebo ([1]; SCA3 patient, week 24, 200 mg daily (subgroup not given)): at least −0.40
- LS mean change difference compared to placebo ([1]; SCA3 patient, week 36, 200 mg daily (first statement)): at least −0.72
- LS mean change difference compared to placebo ([1]; SCA3 patient, week 36, 200 mg daily (subgroup not given)): at least −0.55
- LS mean change difference in f-SARA score from baseline vs placebo ([1]; SCA3 patients able to walk without assistance at baseline (f-SARA Gait Item score=1), nominal p=0.031, 95% CI −1.36, −0.07): −0.71
- LS mean change difference in f-SARA score from baseline vs placebo ([1]; SCA3 subgroup, nominal p=0.053, 95% CI −1.12, 0.01, post-hoc): −0.55
- primary endpoint, change from baseline to Week 48 on f-SARA (statistical outcome) ([1]; overall SCA population, 200 mg once daily vs placebo, 48 weeks, p=0.76): did not reach statistical significance
- f-SARA score at the 48-week endpoint ([1]; overall study population N=213, mean baseline score 4.9, 200 mg once daily, placebo 5.2): 5.1
- reduction of fall risk versus placebo ([2]; SCA3 genotype, patient reported falls as adverse events, nominal p=0.04): approximately 50%
- AE incidence of falls ([2]; SCA3 genotype, placebo 32%): 16%
- reduction of fall risk versus placebo ([2]; all genotypes, patients able to ambulate at baseline (f-SARA Gait Item score=1), nominal p=0.043): approximately 59%
- AE incidence of falls ([2]; all genotypes, patients able to ambulate at baseline (f-SARA Gait Item score=1), placebo 23%): 10%
- safety and tolerability profile ([2]; overall, Phase 3 study): favorable safety and tolerability profile
- solubility in water [3]: freely soluble in water
